Measurements from patent publication US9676732B2, “Ethynyl derivatives” (Hoffmann-La Roche Inc., priority 2013, dated 2017).

Legend:
[1] = test system: mice treated with 1-Methyl-4-Phenyl-1,2,3,6-Tetrahydropyridine (MPTP); details: cited from earlier work
[2] = test system: marble burying test in mice; details: preclinical model of anxiety; cited from earlier work
[3] = test system: EPM in mice; details: preclinical model of anxiety; cited from earlier work
[4] = test system: EPM in rats; details: cited from earlier work
[5] = target: human mGlu4 receptor (Homo sapiens (Human), UniProt Q14833); assay: Ca2+ mobilization in vitro assay on recombinant human mGlu4 expressed in HEK293 cells (mGlu4 PAM); type: cell-based; details: for EC50: HEK293 cells stably expressing human mGlu4, L-AP4 added at EC20, read-out: EC50 (nM) mGlu4PAM; for Eff. (%): maximal response in % of the maximal stimulatory effect obtained with saturating concentrations of L-AP4
Method: Determination of EC50 Values Using a Ca2+ Mobilization In Vitro Assay on Recombinant Human mGlu4 Expressed in HEK293 Cells:
A monoclonal HEK-293 cell line stably transfected with a cDNA encoding for the human mGlu4 receptor was generated; for the work with mGlu4 Positive Allosteric Modulators (PAMs), a cell line with low receptor expression levels and low constitutive receptor activity was selected to allow the differentiation of agonistic versus PAM activity. Cells were cultured according to standard protocols (Freshney, 2000) in Dulbecco's Modified Eagle Medium with high glucose supplemented with 1 mM glutamine, 10% (vol/vol) heat-inactivated bovine calf serum, Penicillin/Streptomycin, 50 μg/ml hygromycin and 15 μg/ml blasticidin (all cell culture reagents and antibiotics from Invitrogen, Basel, Switzerland).
About 24 hrs before an experiment, 5×10^4 cells/well were seeded in poly-D-lysine coated, black/clear-bottomed 96-well plates. The cells were loaded with 2.5 μM Fluo-4AM in loading buffer (1×HBSS, 20 mM HEPES) for 1 hr at 37° C. and washed five times with loading buffer. The cells were transferred into a Functional Drug Screening System 7000 (Hamamatsu, Paris, France), and 11 half logarithmic serial dilutions of test compound at 37° C. were added and the cells were incubated for 10-30 min. with on-line recording of fluorescence. Following this pre-incubation step, the agonist (2S)-2-amino-4-phosphonobutanoic acid (L-AP4) was added to the cells at a concentration corresponding to EC20 with on-line recording of fluorescence; in order to account for day-to-day variations in the responsiveness of cells, the EC20 of L-AP4 was determined immediately ahead of each experiment by recording of a full dose-response curve of L-AP4.
Responses were measured as peak increase in fluorescence minus basal (i.e. fluorescence without addition of L-AP4), normalized to the maximal stimulatory effect obtained with saturating concentrations of L-AP4. Graphs were plotted with the % maximal stimulatory using XLfit, a curve fitting program that iteratively plots the data using Levenburg Marquardt algorithm. The single site competition analysis equation used was y=A+((B−A)/(1+((x/C)D))), where y is the % maximal stimulatory effect, A is the minimum y, B is the maximum y, C is the EC50, x is the log 10 of the concentration of the competing compound and D is the slope of the curve (the Hill Coefficient). From these curves the EC50 (drug concentration at which 50% of the maximal receptor activation was achieved), the Hill coefficient as well as the maximal response in % of the maximal stimulatory effect obtained with saturating concentrations of L-AP4 were calculated (see FIG. 1).
A depression of the signal observed after addition of the EC20 concentration of L-AP4 was indicative of an inhibitory activity of the test compound. • FIG. 1: Illustration of the experimental outline for mGlu4 PAM Ca2+ mobilization screening assay and the determination of EC50 and % Emax values.

[6] = test system: 6-OHDA rodent model of PD; details: cited from earlier work

Chain of human mGlu4 receptor (Q14833 33-912): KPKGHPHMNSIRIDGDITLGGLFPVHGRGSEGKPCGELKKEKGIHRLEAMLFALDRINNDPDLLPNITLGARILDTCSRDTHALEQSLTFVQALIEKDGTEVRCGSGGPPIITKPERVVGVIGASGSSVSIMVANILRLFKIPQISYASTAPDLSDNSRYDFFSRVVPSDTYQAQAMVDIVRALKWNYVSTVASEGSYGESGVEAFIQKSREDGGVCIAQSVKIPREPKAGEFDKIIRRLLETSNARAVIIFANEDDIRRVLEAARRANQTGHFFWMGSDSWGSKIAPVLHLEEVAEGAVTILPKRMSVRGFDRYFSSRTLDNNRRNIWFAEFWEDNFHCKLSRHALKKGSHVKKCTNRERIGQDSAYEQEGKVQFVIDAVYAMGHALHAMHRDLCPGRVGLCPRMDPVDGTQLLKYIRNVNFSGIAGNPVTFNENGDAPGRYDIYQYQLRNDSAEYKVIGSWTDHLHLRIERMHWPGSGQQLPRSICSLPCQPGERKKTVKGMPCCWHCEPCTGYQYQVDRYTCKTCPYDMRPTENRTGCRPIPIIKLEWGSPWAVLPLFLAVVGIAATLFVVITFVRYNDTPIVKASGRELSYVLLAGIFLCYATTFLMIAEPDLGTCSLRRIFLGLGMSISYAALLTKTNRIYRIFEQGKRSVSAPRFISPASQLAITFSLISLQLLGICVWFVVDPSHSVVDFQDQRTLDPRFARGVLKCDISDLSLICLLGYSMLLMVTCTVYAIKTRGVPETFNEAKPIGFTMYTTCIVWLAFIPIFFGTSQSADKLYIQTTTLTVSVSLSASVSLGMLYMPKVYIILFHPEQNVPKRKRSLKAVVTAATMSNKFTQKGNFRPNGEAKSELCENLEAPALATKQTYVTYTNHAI

| EC50 [5] | Eff. (%) [5] | SMILES | further results |
| --- | --- | --- | --- |
| 91 nM | 129% | Cn1c(=O)n(-c2c(F)cc(C#Cc3ccccc3)cc2F)c(=O)c2nccc(Cl)c21 [Example 61, 8-Chloro-3-[2,6-difluoro-4-(2-phenylethynyl)phenyl]-1-methyl-pyrido[3,2-d]pyrimidine-2,4-dione] |  |
| 137 nM | 145% | Cn1cc2c(=O)n(-c3c(F)cc(C#Cc4ccccc4)cc3F)c(=O)n(C)c2n1 [Example 62, 5-[2,6-Difluoro-4-(2-phenylethynyl)phenyl]-2,7-dimethyl-pyrazolo[3,4-d]pyrimidine-4,6-dione] |  |
| 26 nM | 146% | Cn1ncc2c(=O)n(-c3c(F)cc(C#Cc4ccccc4)cc3F)c(=O)n(C)c21 [Example 63, 5-[2,6-Difluoro-4-(2-phenylethynyl)phenyl]-1,7-dimethyl-pyrazolo[3,4-d]pyrimidine-4,6-dione] |  |
| 121 nM | 120% | CC(C)n1c(=O)n(-c2c(F)cc(C#Cc3ccccc3)cc2F)c(=O)c2c[nH]nc21 [Example 64, 5-[2,6-Difluoro-4-(2-phenylethynyl)phenyl]-7-isopropyl-2H-pyrazolo[3,4-d]pyrimidine-4,6-dione] |  |
| 48 nM | 225% | CC(C)n1c(=O)n(-c2c(F)cc(C#Cc3ccccc3)cc2F)c(=O)c2nccnc21 [Example 68, 3-[2,6-Difluoro-4-(2-phenylethynyl)phenyl]-1-isopropyl-pteridine-2,4-dione] |  |
| 50 nM | 113% | Cn1cnc2c1c(=O)n(-c1c(F)cc(C#Cc3ccccc3)cc1F)c(=O)n2C [Example 69, 1-[2,6-Difluoro-4-(2-phenylethynyl)phenyl]-3,7-dimethyl-purine-2,6-dione] |  |
| 38 nM | 152% | COc1cccc2c(=O)n(-c3c(F)cc(C#Cc4ccccc4)cc3F)c(=O)n(C)c12 [Example 70, 3-[2,6-Difluoro-4-(2-phenylethynyl)phenyl]-8-methoxy-1-methyl-quinazoline-2,4-dione] |  |

The remaining lines, values behind:

| SMILES | EC50 [5] | Eff. (%) [5] | further results |
| --- | --- | --- | --- |
| O=C(Nc1ccccc1)C12CC1/C(=N\O)c1ccccc1O2 (single isomer, unassigned; (-)) [(−)-PHCCC] |  |  | nigrostriatal degeneration [1]: reduced nigrostriatal degeneration |
| Cc1ccnc(Nc2nc(-c3cn[nH]c3)c(C)s2)n1 [ADX88178] |  |  | activity in marble burying test [2]: active; activity in EPM [3]: active; profile in rat EPM test ([4]; rat, after oral dosing): anxiolytic-like profile; activity in EPM ([4]; rats, preclinical model of anxiety): active |
| CC(C)n1c(=O)n(-c2c(F)cc(C#Cc3cccnc3)cc2F)c(=O)c2nn(C)cc21 [Example 57, 6-[2,6-Difluoro-4-[2-(3-pyridyl)ethynyl]phenyl]-4-isopropyl-2-methyl-pyrazolo[4,3-d]pyrimidine-5,7-dione] | 65 nM | 134% |  |
| CC(C)n1c(=O)n(-c2c(F)cc(C#Cc3cccnc3)cc2Cl)c(=O)c2nn(C)cc21 [Example 58, 6-[2-Chloro-6-fluoro-4-[2-(3-pyridyl)ethynyl]phenyl]-4-isopropyl-2-methyl-pyrazolo[4,3-d]pyrimidine-5,7-dione] | 37 nM | 120% |  |
| CC(C)n1c(=O)n(-c2ncc(C#Cc3cccnc3)cc2Cl)c(=O)c2nn(C)cc21 [Example 59, 6-[3-Chloro-5-[2-(3-pyridyl)ethynyl]-2-pyridyl]-4-isopropyl-2-methyl-pyrazolo[4,3-d]pyrimidine-5,7-dione] | 169 nM | 146% |  |
| CC(C)n1c(=O)n(-c2ncc(C#Cc3ccccc3)cc2Cl)c(=O)c2nn(C)cc21 [Example 60, 6-[3-Chloro-5-(2-phenylethynyl)-2-pyridyl]-4-isopropyl-2-methyl-pyrazolo[4,3-d]pyrimidine-5,7-dione] | 189 nM | 150% |  |
| COc1cccc2c(=O)n(-c3ccc(C#Cc4ccccc4)cc3Cl)c(=O)n(C)c12 [Example 65, 3-[2-Chloro-4-(2-phenylethynyl)phenyl]-8-methoxy-1-methyl-quinazoline-2,4-dione] | 32 nM | 97% |  |
| O=c1c2ccccc2n(C2COC2)c(=O)n1-c1c(F)cc(C#Cc2ccccc2)cc1F [Example 66, 3-[2,6-Difluoro-4-(2-phenylethynyl)phenyl]-1-(oxetan-3-yl)quinazoline-2,4-dione] | 75 nM | 184% |  |
| Cn1c(=O)n(-c2ccc(C#Cc3ccccc3)cc2Cl)c(=O)c2ncsc21 [Example 67, 6-[2-Chloro-4-(2-phenylethynyl)phenyl]-4-methyl-thiazolo[5,4-d]pyrimidine-5,7-dione] | 246 nM | 188% |  |
| O=c1c2ccccc2n(C2COC2)c(=O)n1-c1c(F)cc(C#Cc2cccnc2)cc1Cl [Example 71, 3-[2-Chloro-6-fluoro-4-[2-(3-pyridyl)ethynyl]phenyl]-1-(oxetan-3-yl)quinazoline-2,4-dione] | 86 nM | 103% |  |
| CC(C)n1c(=O)n(-c2c(F)cc(C#Cc3ccccc3)cc2C(F)(F)F)c(=O)c2ccccc21 [Example 72, 3-[2-Fluoro-4-(2-phenylethynyl)-6-(trifluoromethyl)phenyl]-1-isopropyl-quinazoline-2,4-dione] | 63 nM | 134% |  |
| Cc1cccc2c(=O)n(-c3c(F)cc(C#Cc4cccnc4)cc3F)c(=O)n(C)c12 [Example 73, 3-[2,6-Difluoro-4-[2-(3-pyridyl)ethynyl]phenyl]-1,8-dimethyl-quinazoline-2,4-dione] | 154 nM | 197% |  |
| Cn1c(=O)n(-c2c(F)cc(C#Cc3ccccc3)cc2F)c(=O)c2cccc(OCC(F)F)c21 [Example 74, 8-(2,2-Difluoroethoxy)-3-[2,6-difluoro-4-(2-phenylethynyl)phenyl]-1-methyl-quinazoline-2,4-dione] | 60 nM | 122% |  |
| N[C@@H](CCP(=O)(O)O)C(=O)O [L-AP4, (2S)-2-amino-4-phosphonobutanoic acid] |  |  | neuroprotection [6]: neuroprotective effects |
